Patent US3994901A, “5-[1-Hydroxy-2-(s ubstituted-amino)]alkyl-8-hydroxy-3,4-dihydrocarbostyril derivatives” (Otsuka Pharmaceutical Company Limited, priority 1974, dated 1976)
Counter-ions that a name gives are not always drawn.

Key:
in vivo = settings: rat, male rats (dd strain), fasted 12 hours
β-adreno-receptor = assay: Inhibition of histamine-induced bronchoconstriction (bronchial resistance, Konzett-Rossler method) in anesthetized dogs; β-adreno-receptor stimulating activity; format: in vivo, dog (male hybrid adult dogs); settings: femoral vein, 1 minute before histamine 10 mg/kg
Method: The stimulating activity of the compounds of this invention on β-adreno-receptor was determined as follows:
Male hybrid adult dogs, weighing 10 to 15 kg were anesthesized with 30 mg/kg of body weight of sodium pentobarbital administered intravenously. Each of the anesthesized dogs were secured on its back and a cannula was inserted into the trachea. Artificial respiration was conducted using a device according to the Konzett-Rossler method (Konzett H. & Rossler R., "Versuchsanordnug zu Untersuchungen an der Bronchial Moskolatur", Arch. Exp. Path., Pharmack, 195, 71 - 74, 27 - 40 (1940)). The volume of the overflowing air at the time of inhalation was measured through a pneumotachometer to determine the bronchial resistance and the values obtained were recorded on a polygraph.
In the above experiment, histamine was employed as a bronchoconstrictor at a dosage level of 10 mg/kg of body weight, and an aqueous solution containing each of the test compounds and controls shown in Table 1 below was then administered to each of the anesthesized dogs through the femoral vein at various dosage levels shown in Table 1 below 1 minute before the administration of the histamine. Sodium pentobarbital was infused during the experiment at a dosage level of 4 mg/kg of body weight/hr using an automatic injector in order to inhibit spontaneous respiration and to keep the anesthetic condition constant over the test period.

Structure (SMILES)	LD50 (in vivo; iv, I.v.) [mg/kg]	LD50 (in vivo; po) [mg/kg]	Bronchial Resistance (%) (β-adreno-receptor; dose 0.01 ug/Kg)	Bronchial Resistance (%) (β-adreno-receptor; dose 0.03 ug/Kg)	Bronchial Resistance (%) (β-adreno-receptor; dose 0.1 ug/Kg)	Bronchial Resistance (%) (β-adreno-receptor; dose 0.3 ug/Kg)	Bronchial Resistance (%) (β-adreno-receptor; dose 1.0 ug/Kg)	Bronchial Resistance (%) (β-adreno-receptor; dose 3.0 ug/Kg)	Bronchial Resistance (%) (β-adreno-receptor; dose 10 ug/Kg)	Bronchial Resistance (%) (β-adreno-receptor; dose 30 ug/Kg)	Bronchial Resistance (%) (β-adreno-receptor; dose 100 ug/Kg)
CCC(NC(C)C)C(O)c1ccc(O)c2c1CCC(=O)N2 (stereo not drawn) [5-(1-Hydroxy-2-isopropylamino)butyl-8-hydroxy-3,4-dihydrocarbostyril]	81.5	830									
CC(C)NCC(O)c1cc(O)cc(O)c1 (stereo not drawn) [Metaproterenol Sulfate (Arotec)]			0	0	2.7	11.1	27.5	50.0	88.3	100	
CC(C)NCC(O)c1ccc(O)c2ncccc12 (stereo not drawn) [Quinterenol]			0	0	0	0	0	0	0	7.6	15.3
CC(C)(C)NCC(O)c1ccc(O)c(CO)c1 (stereo not drawn) [Salbutamol]			0	0	16.6	33.3	66.6	100			
CC(C)NCC(O)c1ccc(O)c(O)c1 (stereo not drawn) [Isoproterenol]				16.6			100				
